We go through two compounds from PMC8213057, “Targeting ALK2: An Open Science Approach to Developing Therapeutics for the Treatment of Diffuse Intrinsic Pontine Glioma” (Journal of Medicinal Chemistry, 2020).

SMILES strings stand for the structures.

For one experiment, the target named is CDK5/P25 (Homo sapiens, UniProt Q00535). The settings on record: 1 μM; Run 1, Run 2.
Another experiment has as its target ERBB2/HER2 (Homo sapiens, UniProt P04626). The conditions noted are these: 1 μM; Run 1, Run 2.
Another experiment has as its target T1, EPHB4 (Homo sapiens, UniProt P54760).
T1 sequence (P54760 16-987): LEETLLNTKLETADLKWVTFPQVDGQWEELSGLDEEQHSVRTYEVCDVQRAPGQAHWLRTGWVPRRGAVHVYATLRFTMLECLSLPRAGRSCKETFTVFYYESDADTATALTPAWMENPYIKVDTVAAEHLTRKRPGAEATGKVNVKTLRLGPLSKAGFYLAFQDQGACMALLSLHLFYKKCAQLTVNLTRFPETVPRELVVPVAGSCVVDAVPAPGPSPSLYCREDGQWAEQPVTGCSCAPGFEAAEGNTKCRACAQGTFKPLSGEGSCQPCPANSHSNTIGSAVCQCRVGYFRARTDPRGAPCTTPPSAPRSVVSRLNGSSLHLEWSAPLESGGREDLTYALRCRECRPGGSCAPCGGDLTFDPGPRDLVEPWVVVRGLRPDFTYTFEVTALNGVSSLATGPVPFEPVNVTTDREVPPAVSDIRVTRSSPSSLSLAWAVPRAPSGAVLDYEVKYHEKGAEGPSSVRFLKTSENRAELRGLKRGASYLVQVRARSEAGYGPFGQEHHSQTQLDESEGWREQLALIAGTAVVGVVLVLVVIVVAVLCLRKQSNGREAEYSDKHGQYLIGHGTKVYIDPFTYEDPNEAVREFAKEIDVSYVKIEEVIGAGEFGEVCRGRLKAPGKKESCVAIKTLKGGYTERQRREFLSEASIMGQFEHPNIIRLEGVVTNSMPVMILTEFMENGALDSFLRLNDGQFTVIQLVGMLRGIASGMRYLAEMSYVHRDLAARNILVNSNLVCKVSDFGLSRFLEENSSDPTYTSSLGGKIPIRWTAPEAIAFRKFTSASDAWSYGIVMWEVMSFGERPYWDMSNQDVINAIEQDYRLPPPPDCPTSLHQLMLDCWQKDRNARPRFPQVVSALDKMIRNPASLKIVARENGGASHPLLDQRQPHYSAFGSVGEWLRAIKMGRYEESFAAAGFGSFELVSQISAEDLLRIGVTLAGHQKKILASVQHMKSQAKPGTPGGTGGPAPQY
The conditions noted are these: 1 μM; Run 1, Run 2.

For a further experiment, the target named is PAK3 (Homo sapiens, UniProt O75914). The experiment can be described thus: biochemical. The conditions noted are these: read-out: % enzyme activity, 1 μM; Run 1, Run 2.
In the next experiment the target is T2, EPHA3 (Homo sapiens, UniProt P29320).
T2 sequence (P29320 21-983): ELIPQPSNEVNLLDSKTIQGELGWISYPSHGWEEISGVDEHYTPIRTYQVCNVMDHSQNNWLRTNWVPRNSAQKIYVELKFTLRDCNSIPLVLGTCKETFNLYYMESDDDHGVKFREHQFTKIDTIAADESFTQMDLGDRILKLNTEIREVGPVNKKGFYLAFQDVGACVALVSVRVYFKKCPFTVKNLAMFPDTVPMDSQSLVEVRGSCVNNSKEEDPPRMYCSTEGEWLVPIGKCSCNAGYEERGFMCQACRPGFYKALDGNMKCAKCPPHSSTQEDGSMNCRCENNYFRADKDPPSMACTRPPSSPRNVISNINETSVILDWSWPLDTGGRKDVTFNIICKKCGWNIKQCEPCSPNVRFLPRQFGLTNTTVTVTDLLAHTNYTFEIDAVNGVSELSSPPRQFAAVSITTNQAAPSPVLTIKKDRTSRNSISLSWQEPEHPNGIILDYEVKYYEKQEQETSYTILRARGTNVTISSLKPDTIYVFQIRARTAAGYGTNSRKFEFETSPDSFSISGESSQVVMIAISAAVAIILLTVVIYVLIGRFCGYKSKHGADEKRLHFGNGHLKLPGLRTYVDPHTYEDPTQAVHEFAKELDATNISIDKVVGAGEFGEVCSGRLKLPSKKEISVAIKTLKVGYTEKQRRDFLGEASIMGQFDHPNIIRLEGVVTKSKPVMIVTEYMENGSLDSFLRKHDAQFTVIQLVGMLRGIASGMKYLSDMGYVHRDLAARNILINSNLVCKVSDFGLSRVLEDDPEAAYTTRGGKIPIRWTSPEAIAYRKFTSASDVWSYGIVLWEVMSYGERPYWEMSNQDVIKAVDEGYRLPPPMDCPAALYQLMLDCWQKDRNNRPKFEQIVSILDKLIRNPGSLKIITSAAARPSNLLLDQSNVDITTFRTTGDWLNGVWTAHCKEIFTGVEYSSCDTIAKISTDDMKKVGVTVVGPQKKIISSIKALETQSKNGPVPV
The experiment can be described thus: biochemical. The settings on record: read-out: % enzyme activity, 1 μM; Run 1, Run 2.

The next experiment addresses T3, KSR1 (Homo sapiens, UniProt Q8IVT5).
T3 sequence (Q8IVT5 1-923): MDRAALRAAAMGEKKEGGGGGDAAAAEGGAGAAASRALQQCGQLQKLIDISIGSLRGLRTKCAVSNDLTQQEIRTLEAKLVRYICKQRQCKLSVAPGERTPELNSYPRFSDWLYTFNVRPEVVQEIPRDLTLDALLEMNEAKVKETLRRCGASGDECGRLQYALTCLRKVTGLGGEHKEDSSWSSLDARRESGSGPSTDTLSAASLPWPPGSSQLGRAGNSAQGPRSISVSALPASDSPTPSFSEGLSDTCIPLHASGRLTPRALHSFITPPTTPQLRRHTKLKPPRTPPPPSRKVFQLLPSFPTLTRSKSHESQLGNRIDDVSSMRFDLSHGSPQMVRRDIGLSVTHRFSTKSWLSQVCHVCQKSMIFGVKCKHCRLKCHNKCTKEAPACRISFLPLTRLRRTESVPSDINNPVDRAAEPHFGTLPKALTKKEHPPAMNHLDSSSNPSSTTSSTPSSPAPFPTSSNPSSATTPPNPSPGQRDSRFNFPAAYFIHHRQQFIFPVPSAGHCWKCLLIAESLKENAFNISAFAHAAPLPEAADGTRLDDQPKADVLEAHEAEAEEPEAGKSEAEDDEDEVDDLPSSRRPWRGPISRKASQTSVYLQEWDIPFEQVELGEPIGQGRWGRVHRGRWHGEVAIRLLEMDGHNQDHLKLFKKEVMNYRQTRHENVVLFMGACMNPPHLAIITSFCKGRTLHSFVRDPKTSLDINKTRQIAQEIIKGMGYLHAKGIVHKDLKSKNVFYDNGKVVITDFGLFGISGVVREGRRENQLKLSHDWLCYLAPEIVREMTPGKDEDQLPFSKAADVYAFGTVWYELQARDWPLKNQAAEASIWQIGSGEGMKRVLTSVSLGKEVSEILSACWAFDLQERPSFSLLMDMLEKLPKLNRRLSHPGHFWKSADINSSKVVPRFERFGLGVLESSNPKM
The settings on record: 1 μM; Run 1, Run 2.

Sequence of PAK3 (O75914 whole entry): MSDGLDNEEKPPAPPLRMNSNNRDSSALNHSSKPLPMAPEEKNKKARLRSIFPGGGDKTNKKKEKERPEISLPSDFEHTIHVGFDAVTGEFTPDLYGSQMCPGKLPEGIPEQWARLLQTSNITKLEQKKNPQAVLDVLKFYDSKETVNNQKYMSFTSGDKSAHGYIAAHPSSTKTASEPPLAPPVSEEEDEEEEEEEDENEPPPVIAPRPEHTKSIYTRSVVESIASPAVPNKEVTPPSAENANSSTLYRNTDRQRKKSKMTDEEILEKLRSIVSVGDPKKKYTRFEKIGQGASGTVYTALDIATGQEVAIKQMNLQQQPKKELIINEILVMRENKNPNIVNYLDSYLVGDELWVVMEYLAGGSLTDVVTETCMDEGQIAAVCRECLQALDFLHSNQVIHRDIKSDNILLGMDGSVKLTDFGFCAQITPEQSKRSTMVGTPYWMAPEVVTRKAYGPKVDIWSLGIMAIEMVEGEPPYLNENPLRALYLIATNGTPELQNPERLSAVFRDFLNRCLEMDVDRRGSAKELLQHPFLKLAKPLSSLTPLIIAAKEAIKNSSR
Sequence of ERBB2/HER2 (P04626 23-1255): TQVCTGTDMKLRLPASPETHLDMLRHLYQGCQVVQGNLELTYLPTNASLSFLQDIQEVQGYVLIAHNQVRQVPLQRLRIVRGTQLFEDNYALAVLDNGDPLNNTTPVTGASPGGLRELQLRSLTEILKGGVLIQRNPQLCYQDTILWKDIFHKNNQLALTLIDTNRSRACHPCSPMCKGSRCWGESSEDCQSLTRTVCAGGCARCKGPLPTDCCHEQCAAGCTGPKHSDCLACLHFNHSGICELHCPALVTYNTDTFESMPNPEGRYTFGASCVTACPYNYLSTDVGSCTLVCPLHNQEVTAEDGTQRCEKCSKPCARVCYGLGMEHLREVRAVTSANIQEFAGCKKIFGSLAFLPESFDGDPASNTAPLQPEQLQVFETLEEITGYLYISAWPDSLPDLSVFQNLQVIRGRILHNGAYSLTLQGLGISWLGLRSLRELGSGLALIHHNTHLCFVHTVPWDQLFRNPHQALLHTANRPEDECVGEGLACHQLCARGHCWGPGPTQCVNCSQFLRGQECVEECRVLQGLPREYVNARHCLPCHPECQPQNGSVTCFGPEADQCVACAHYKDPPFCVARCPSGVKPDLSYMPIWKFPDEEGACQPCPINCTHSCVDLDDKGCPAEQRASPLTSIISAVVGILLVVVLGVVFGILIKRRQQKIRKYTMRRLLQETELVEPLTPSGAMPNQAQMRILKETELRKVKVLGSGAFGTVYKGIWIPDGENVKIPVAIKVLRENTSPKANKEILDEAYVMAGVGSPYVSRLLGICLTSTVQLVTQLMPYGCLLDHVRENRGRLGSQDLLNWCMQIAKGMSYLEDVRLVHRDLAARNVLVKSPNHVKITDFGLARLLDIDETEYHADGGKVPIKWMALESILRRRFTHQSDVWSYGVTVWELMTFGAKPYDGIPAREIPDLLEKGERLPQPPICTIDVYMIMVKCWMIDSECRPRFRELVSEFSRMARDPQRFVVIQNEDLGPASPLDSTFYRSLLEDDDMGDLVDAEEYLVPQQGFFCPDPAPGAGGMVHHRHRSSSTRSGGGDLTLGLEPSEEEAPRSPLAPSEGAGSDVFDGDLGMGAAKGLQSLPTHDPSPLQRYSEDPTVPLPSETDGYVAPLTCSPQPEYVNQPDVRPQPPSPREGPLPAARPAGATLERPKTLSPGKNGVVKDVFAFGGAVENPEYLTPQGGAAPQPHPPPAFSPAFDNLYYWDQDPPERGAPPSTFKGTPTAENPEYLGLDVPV
Sequence of CDK5/P25 (Q00535 whole entry): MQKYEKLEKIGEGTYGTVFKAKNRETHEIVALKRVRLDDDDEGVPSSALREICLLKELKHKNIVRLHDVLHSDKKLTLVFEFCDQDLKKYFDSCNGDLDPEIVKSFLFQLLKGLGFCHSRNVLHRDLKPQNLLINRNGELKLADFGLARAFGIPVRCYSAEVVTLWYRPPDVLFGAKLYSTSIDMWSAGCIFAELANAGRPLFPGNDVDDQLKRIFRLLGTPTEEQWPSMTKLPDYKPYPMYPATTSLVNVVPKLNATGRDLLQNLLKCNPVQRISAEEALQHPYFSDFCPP
Sequence of CDK5/P25 (Q15078 99-307 partner limits assumed): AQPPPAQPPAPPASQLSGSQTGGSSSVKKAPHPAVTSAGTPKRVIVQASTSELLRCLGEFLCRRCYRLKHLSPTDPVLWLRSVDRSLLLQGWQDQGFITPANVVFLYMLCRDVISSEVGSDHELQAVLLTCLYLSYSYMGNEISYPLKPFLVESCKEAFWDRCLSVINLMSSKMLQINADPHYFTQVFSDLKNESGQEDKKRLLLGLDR

Consider `COc1cc(-c2cncc(-c3ccc(N4C[C@@H](C)N(C)[C@@H](C)C4)cc3)c2C)cc(F)c1C(N)=O` [Compound 26c, 2-Fluoro-6-methoxy-4-(4-methyl-5-(4-((3R,5S)-3,4,5-trimethylpiperazin-1-yl)phenyl)pyridin-3-yl)benzamide], for which the “% enzyme activity” value amounted to 94.09% on CDK5/P25, 95.40% at ERBB2/HER2, 91.07% on EPHB4 and 95.91% at KSR1. In addition, the values for the remaining activity at 1 µM on PAK3 and at EPHA3 were 125% and 101%, respectively.

As for `COc1cc(-c2cncc(-c3ccc(N4CCN(C)CC4)cc3)c2C)cc(F)c1C(N)=O` [Compound 26a, 2-Fluoro-6-methoxy-4-(4-methyl-5-(4-(4-methylpiperazin-1-yl)phenyl)pyridin-3-yl)benzamide], the “% enzyme activity” value at CDK5/P25 is on record as 91.77%; on ERBB2/HER2 it was 89.07%; at EPHB4, 93.42%; at KSR1, 93.83%. The values for the remaining activity at 1 µM at PAK3 and at EPHA3 were 89.5% and 95.7%, respectively.
